Test results as given in patent publication EP0013067A1, “Bicyclic beta-lactam antibacterial agents, their use in pharmaceutical compositions, processes for their preparation and intermediates for use in such processes” (BEECHAM GROUP PLC, priority 1978, dated 1980).

Legend:
Experiment in all cases: MIC, DST agar + 10% horse blood
Type in all cases: cell-based
[1] = test system: Staphylococcus aureus 1517; conditions: Staphylococcus aureus 1517; DST agar + 10% horse blood; inoculum 0.001 ml of a 10^-2 dilution for G + ve bacteria or a 10^-4 dilution for G - ve organisms; read-out: MIC Agar
Description: (§1) The ninimum inhibitory concentrations (MIC) cf this compound required to inhibit the growth of various bacteria are tabulated balow: […]

Citrobacter freundii E8 = conditions: Citrobacter freundii E8; DST agar + 10% horse blood; inoculum 0.001 ml of a 10^-2 dilution for G + ve bacteria or a 10^-4 dilution for G - ve organisms; read-out: MIC Agar
Description: as §1

[2] = test system: Staphylococcus aureus Russell; conditions: Staphylococcus aureus Russell; DST agar + 10% horse blood; inoculum 0.001 ml of a 10^-2 dilution for G + ve bacteria or a 10^-4 dilution for G - ve organisms; read-out: MIC Agar
Description: as §1

Proteus rettgeri WM16 = conditions: Providencia rettgeri; Proteus rettgeri WM16; DST agar + 10% horse blood; inoculum 0.001 ml of a 10^-2 dilution for G + ve bacteria or a 10^-4 dilution for G - ve organisms; read-out: MIC Agar
Description: as §1

Shigella sonnei MB 11967 = conditions: MB11967, inoculum 0.001 ml of a 10^-2 dilution for G + ve bacteria or a 10^-4 dilution for G - ve organisms
Description: as §1

Escherichia coli JT 39 = conditions: JT39; Escherichia coli JT 39; DST agar + 10% horse blood; inoculum 0.001 ml of a 10^-2 dilution for G + ve bacteria or a 10^-4 dilution for G - ve organisms; read-out: MIC Agar
Description: as §1

E. coli ESS = conditions: Escherichia coli, inoculum 0.001 ml of a 10^-2 dilution for G + ve bacteria or a 10^-4 dilution for G - ve organisms
Description: as §1

Serratia marcescens US20 = conditions: Serratia marcescens US20; DST agar + 10% horse blood; inoculum 0.001 ml of a 10^-2 dilution for G + ve bacteria or a 10^-4 dilution for G - ve organisms; read-out: MIC Agar
Description: as §1

Proteus mirabilis C977 = conditions: Proteus mirabilis C977; DST agar + 10% horse blood; inoculum 0.001 ml of a 10^-2 dilution for G + ve bacteria or a 10^-4 dilution for G - ve organisms; read-out: MIC Agar
Description: as §1

Pseudomonas aeruginosa A = conditions: Pseudomonas aeruginosa A; DST agar + 10% horse blood; inoculum 0.001 ml of a 10^-2 dilution for G + ve bacteria or a 10^-4 dilution for G - ve organisms; read-out: MIC Agar
Description: as §1

Klebsiella aerogenes A = conditions: Klebsiella aerogenes A; DST agar + 10% horse blood; inoculum 0.001 ml of a 10^-2 dilution for G + ve bacteria or a 10^-4 dilution for G - ve organisms; read-out: MIC Agar
Description: as §1

[3] = test system: Staphylococcus aureus Oxford; conditions: Staphylococcus aureus Oxford; DST agar + 10% horse blood; inoculum 0.001 ml of a 10^-2 dilution for G + ve bacteria or a 10^-4 dilution for G - ve organisms; read-out: MIC Agar
Description: as §1

[4] = test system: Streptococcus pyogenes CN10; conditions: Streptococcus pyogenes CN10; DST agar + 10% horse blood; inoculum 0.001 ml of a 10^-2 dilution for G + ve bacteria or a 10^-4 dilution for G - ve organisms; read-out: MIC Agar
Description: as §1

Enterobacter cloacae N1 = conditions: Enterobacter cloacae N1; DST agar + 10% horse blood; inoculum 0.001 ml of a 10^-2 dilution for G + ve bacteria or a 10^-4 dilution for G - ve organisms; read-out: MIC Agar
Description: as §1

[5] = test system: Streptococcus pneumoniae CN33; conditions: Streptococcus pneumoniae CN33; DST agar + 10% horse blood; inoculum 0.001 ml of a 10^-2 dilution for G + ve bacteria or a 10^-4 dilution for G - ve organisms; read-out: MIC Agar
Description: as §1

Escherichia coli 0111 = conditions: Escherichia coli 0111, inoculum 0.001 ml of a 10^-2 dilution for G + ve bacteria or a 10^-4 dilution for G - ve organisms
Description: as §1

Streptococcus faecalis I = conditions: Enterococcus faecalis; Streptococcus faecalis I; DST agar + 10% horse blood; inoculum 0.001 ml of a 10^-2 dilution for G + ve bacteria or a 10^-4 dilution for G - ve organisms; read-out: MIC Agar
Description: as §1

Proteus vulgaris W091 = conditions: Proteus vulgaris W091; DST agar + 10% horse blood; inoculum 0.001 ml of a 10^-2 dilution for G + ve bacteria or a 10^-4 dilution for G - ve organisms; read-out: MIC Agar
Description: as §1

Bacillus subtilis A = conditions: Bacillus subtilis A; DST agar + 10% horse blood; inoculum 0.001 ml of a 10^-2 dilution for G + ve bacteria or a 10^-4 dilution for G - ve organisms; read-out: MIC Agar
Description: as §1

Proteus morganii I580 = conditions: Morganella morganii; Proteus morganii I580; DST agar + 10% horse blood; inoculum 0.001 ml of a 10^-2 dilution for G + ve bacteria or a 10^-4 dilution for G - ve organisms; read-out: MIC Agar
Description: as §1

[6] = test system: Salmonella typhimurium CT10; conditions: Salmonella enterica; Salmonella typhimurium CT10; DST agar + 10% horse blood; inoculum 0.001 ml of a 10^-2 dilution for G + ve bacteria or a 10^-4 dilution for G - ve organisms; read-out: MIC Agar
Description: as §1

Row | Structure (SMILES) | MIC [1] [µg/mL] | MIC (Citrobacter freundii E8) [µg/mL] | MIC [2] [µg/mL] | MIC (Proteus rettgeri WM16) [µg/mL] | MIC (Shigella sonnei MB 11967) [µg/mL] | MIC (Escherichia coli JT 39) [µg/mL] | MIC (E. coli ESS) [µg/mL] | MIC (Serratia marcescens US20) [µg/mL] | MIC (Proteus mirabilis C977) [µg/mL] | MIC (Pseudomonas aeruginosa A) [µg/mL] | MIC (Klebsiella aerogenes A) [µg/mL] | MIC [3] [µg/mL] | MIC [4] [µg/mL] | MIC (Enterobacter cloacae N1) [µg/mL] | MIC [5] [µg/mL] | MIC (Escherichia coli 0111) [µg/mL] | MIC (Streptococcus faecalis I) [µg/mL] | MIC (Proteus vulgaris W091) [µg/mL] | MIC (Bacillus subtilis A) [µg/mL] | MIC (Proteus morganii I580) [µg/mL] | other results
1 | O=C(O)C1=C(CO)SC2CC(=O)N12 (stereo not drawn) [compound 19, Sodium 2-Hydroxymethyl penem-3-carboxylate] | 25 | 10 | 2.5 | 50 | 10 | 10 | 10 | 10 | 25 | 50 | 10 | 2.5 | 1 | 50 | 1 | 10 | 100 | 50 | 2.5 | 25 | MIC [6]: 10 µg/mL
2 | CC(=O)OCC1=C(C(=O)O)N2C(=O)CC2S1 (stereo not drawn) [compound 21, Sodium 2-Acetoxymethyl penem-3-carboxylate] | 50 | 10 | 10 | 50 | 50 | 50 | 10 | 25 | 10 | > 100 | 10 | 10 | 2.5 | 100 | 0.5 | 25 | 100 | 50 | 2.5 | 10 | MIC [6]: 25 µg/mL
